Reference: patent publication US11498899B2, “Nitrone herbicides” (FMC Corporation, priority 2016, dated 2022)

Assays:
[1] = test system: barnyardgrass (Echinochloa crus-galli); assay: Test A preemergence, visual injury rating 0-100 (0 no effect, 100 complete control); assay type: in vivo; details: for Barnyardgrass plant response rating (0 to 100 scale): 125 g ai/ha; for Barnyardgrass plant response rating: 500 g ai/ha, 0 to 100 scale
[2] = test system: foxtail, green (green foxtail, Setaria viridis); assay: Test A preemergence, visual injury rating 0-100; assay type: in vivo
[3] = test system: kochia (Kochia scoparia); assay: Test A preemergence, visual injury rating 0-100; assay type: in vivo
[4] = test system: pigweed (Amaranthus retroflexus); assay: Test A preemergence, visual injury rating 0-100; assay type: in vivo
[5] = test system: ragweed (common ragweed, Ambrosia elatior); assay: Test A preemergence, visual injury rating 0-100; assay type: in vivo
[6] = test system: ryegrass, Italian (Italian ryegrass, Lolium multiflorum); assay: Test A preemergence, visual injury rating 0-100; assay type: in vivo
[7] = test system: barnyardgrass (Echinochloa crus-galli); assay: Test A postemergence, visual injury rating 0-100; assay type: in vivo; details: 0 to 100 scale
[8] = test system: blackgrass (Alopecurus myosuroides); assay: Test A postemergence, visual injury rating 0-100; assay type: in vivo; details: 0 to 100 scale
[9] = test system: corn (Zea mays); assay: Test A postemergence, visual injury rating 0-100; assay type: in vivo; details: 0 to 100 scale
[10] = test system: foxtail, green (green foxtail, Setaria viridis); assay: Test A postemergence, visual injury rating 0-100; assay type: in vivo; details: 0 to 100 scale
[11] = test system: galium (catchweed bedstraw, Galium aparine); assay: Test A postemergence, visual injury rating 0-100; assay type: in vivo; details: 0 to 100 scale
[12] = test system: kochia (Kochia scoparia); assay: Test A postemergence, visual injury rating 0-100; assay type: in vivo; details: 0 to 100 scale
[13] = test system: pigweed (Amaranthus retroflexus); assay: Test A postemergence, visual injury rating 0-100; assay type: in vivo; details: 0 to 100 scale
[14] = test system: ragweed (common ragweed, Ambrosia elatior); assay: Test A postemergence, visual injury rating 0-100; assay type: in vivo; details: 0 to 100 scale
[15] = test system: ryegrass, Italian (Italian ryegrass, Lolium multiflorum); assay: Test A postemergence, visual injury rating 0-100; assay type: in vivo; details: 0 to 100 scale
[16] = test system: wheat (Triticum aestivum); assay: Test A postemergence, visual injury rating 0-100; assay type: in vivo; details: 0 to 100 scale
[17] = test system: ducksalad (Heteranthera limosa); assay: Test B flooded paddy test, visual rating 0-100; details: Flood, 250 g ai/ha, applied to paddy water, rated after 13 to 15 days
[18] = test system: barnyardgrass (Echinochloa crus-galli); assay: Test B flooded paddy test, visual rating 0-100; details: Flood, 250 g ai/ha, applied to paddy water, rated after 13 to 15 days
[19] = test system: rice (Oryza sativa); assay: Test B flooded paddy test, visual rating 0-100 (0 no effect, 100 complete control); details: Flood, 250 g ai/ha, applied to paddy water, rated after 13 to 15 days

Row | Structure (SMILES) | Barnyardgrass plant response rating (0 to 100 scale) [1] | Barnyardgrass plant response rating [1] | Foxtail, Green plant response rating (0 to 100 scale) ([2]; 125 g ai/ha) | Kochia plant response rating (0 to 100 scale) ([3]; 125 g ai/ha) | Pigweed plant response rating (0 to 100 scale) ([4]; 125 g ai/ha) | Ragweed plant response rating (0 to 100 scale) ([5]; 125 g ai/ha) | Ryegrass, Italian plant response rating (0 to 100 scale) ([6]; 125 g ai/ha) | Barnyardgrass plant response rating ([7]; 125 g ai/ha) | Barnyardgrass plant response rating ([7]; 500 g ai/ha) | Blackgrass plant response rating ([8]; 125 g ai/ha) | Blackgrass plant response rating ([8]; 500 g ai/ha) | Corn plant response rating ([9]; 125 g ai/ha) | Corn plant response rating ([9]; 500 g ai/ha) | Foxtail, Green plant response rating ([10]; 125 g ai/ha) | Foxtail, Green plant response rating ([10]; 500 g ai/ha) | Galium plant response rating ([11]; 125 g ai/ha) | Galium plant response rating ([11]; 500 g ai/ha) | Kochia plant response rating ([12]; 125 g ai/ha) | Kochia plant response rating ([12]; 500 g ai/ha) | Pigweed plant response rating ([13]; 125 g ai/ha) | also measured
1 | CC1=[N+]([O-])C(C(=O)Nc2ccccc2C#N)C(c2ccc(C(F)(F)F)cc2)C1 (racemic) [Compound 32] | 0 | 100 | 10 | 0 | 0 | 70 | 10 | 20 | 40 | 0 | 20 | 10 | 50 | 20 | 50 | 70 | 80 | 0 | 20 | 0 | Foxtail, Green plant response rating (0 to 100 scale) ([2]; 500 g ai/ha): 100; Kochia plant response rating (0 to 100 scale) ([3]; 500 g ai/ha): 70; Pigweed plant response rating (0 to 100 scale) ([4]; 500 g ai/ha): 80; Ragweed plant response rating (0 to 100 scale) ([5]; 500 g ai/ha): 100; Ryegrass, Italian plant response rating (0 to 100 scale) ([6]; 500 g ai/ha): 10; Pigweed plant response rating ([13]; 500 g ai/ha): 20; Ragweed plant response rating ([14]; 125 g ai/ha): 0; Ragweed plant response rating ([14]; 500 g ai/ha): 20; Ryegrass, Italian plant response rating ([15]; 125 g ai/ha): 0; Ryegrass, Italian plant response rating ([15]; 500 g ai/ha): 0; Wheat plant response rating ([16]; 125 g ai/ha): 0; Wheat plant response rating ([16]; 500 g ai/ha): 0; Ducksalad plant response rating (0 to 100 scale) [17]: 0; Barnyardgrass plant response rating (0 to 100 scale) [18]: 0; Rice plant response rating (0 to 100 scale) [19]: 0
2 | CC1=[N+]([O-])C(C(=O)Nc2ccccc2C(F)(F)F)C(c2ccc(C(F)(F)F)cc2)C1 (racemic) [Compound 33] | 90 | 90 | 50 | 0 | 0 | 70 | 0 | 0 | 40 | 0 | 0 | 10 | 30 | 0 | 70 | 70 | 70 | 0 | 0 | 0 | Foxtail, Green plant response rating (0 to 100 scale) ([2]; 500 g ai/ha): 100; Kochia plant response rating (0 to 100 scale) ([3]; 500 g ai/ha): 70; Pigweed plant response rating (0 to 100 scale) ([4]; 500 g ai/ha): 50; Ragweed plant response rating (0 to 100 scale) ([5]; 500 g ai/ha): 80; Ryegrass, Italian plant response rating (0 to 100 scale) ([6]; 500 g ai/ha): 20; Pigweed plant response rating ([13]; 500 g ai/ha): 20; Ragweed plant response rating ([14]; 125 g ai/ha): 0; Ragweed plant response rating ([14]; 500 g ai/ha): 40; Ryegrass, Italian plant response rating ([15]; 125 g ai/ha): 0; Ryegrass, Italian plant response rating ([15]; 500 g ai/ha): 0; Wheat plant response rating ([16]; 125 g ai/ha): 0; Wheat plant response rating ([16]; 500 g ai/ha): 0; Ducksalad plant response rating (0 to 100 scale) [17]: 0; Barnyardgrass plant response rating (0 to 100 scale) [18]: 20; Rice plant response rating (0 to 100 scale) [19]: 0
3 | CC1=[N+]([O-])C(C(=O)Nc2cccnc2F)C(c2ccc(C(F)(F)F)cc2)C1 (racemic) [Compound 41] | 90 | 100 | 80 | 0 | 90 | 80 | 10 | 30 | 90 | 30 | 50 | 0 | 0 | 40 | 80 | 60 | 70 | 0 | 20 | 30 | Foxtail, Green plant response rating (0 to 100 scale) ([2]; 500 g ai/ha): 100; Kochia plant response rating (0 to 100 scale) ([3]; 500 g ai/ha): 90; Pigweed plant response rating (0 to 100 scale) ([4]; 500 g ai/ha): 90; Ragweed plant response rating (0 to 100 scale) ([5]; 500 g ai/ha): 100; Ryegrass, Italian plant response rating (0 to 100 scale) ([6]; 500 g ai/ha): 70; Pigweed plant response rating ([13]; 500 g ai/ha): 70; Ragweed plant response rating ([14]; 125 g ai/ha): 0; Ragweed plant response rating ([14]; 500 g ai/ha): 40; Ryegrass, Italian plant response rating ([15]; 125 g ai/ha): 0; Ryegrass, Italian plant response rating ([15]; 500 g ai/ha): 70; Wheat plant response rating ([16]; 125 g ai/ha): 0; Wheat plant response rating ([16]; 500 g ai/ha): 30; Ducksalad plant response rating (0 to 100 scale) [17]: 80; Barnyardgrass plant response rating (0 to 100 scale) [18]: 20; Rice plant response rating (0 to 100 scale) [19]: 0
4 | CC1=[N+]([O-])C(C(=O)Nc2cccc(F)n2)C(c2ccc(C(F)(F)F)cc2)C1 (racemic) [Compound 47] | 80 | 100 | 90 | 40 | 80 | 90 | 0 | 50 | 90 | 0 | 0 | 0 | 20 | 50 | 90 | 50 | 30 | 0 | 0 | 0 | Foxtail, Green plant response rating (0 to 100 scale) ([2]; 500 g ai/ha): 100; Kochia plant response rating (0 to 100 scale) ([3]; 500 g ai/ha): 90; Pigweed plant response rating (0 to 100 scale) ([4]; 500 g ai/ha): 100; Ragweed plant response rating (0 to 100 scale) ([5]; 500 g ai/ha): 100; Ryegrass, Italian plant response rating (0 to 100 scale) ([6]; 500 g ai/ha): 20; Pigweed plant response rating ([13]; 500 g ai/ha): 20; Ragweed plant response rating ([14]; 125 g ai/ha): 0; Ragweed plant response rating ([14]; 500 g ai/ha): 40; Ryegrass, Italian plant response rating ([15]; 125 g ai/ha): 0; Ryegrass, Italian plant response rating ([15]; 500 g ai/ha): 50; Wheat plant response rating ([16]; 125 g ai/ha): 0; Wheat plant response rating ([16]; 500 g ai/ha): 0; Ducksalad plant response rating (0 to 100 scale) [17]: 75; Barnyardgrass plant response rating (0 to 100 scale) [18]: 40; Rice plant response rating (0 to 100 scale) [19]: 0
5 | CC1=[N+]([O-])[C@@H](C(=O)Nc2ccccc2F)[C@H](c2ccc(C(F)(F)F)cc2)C1 (relative stereo) [Compound 26, trans-N-(2-fluorophenyl)-3,4-dihydro-5-methyl-3-[4-(trifluoromethyl)phenyl]-2H-pyrrole-2-carboxamide 1-oxide] | 80 | 100 | 100 | 50 | 70 | 80 | 20 | 60 | 90 | 20 | 60 | 0 | 0 | 50 | 90 | 70 | 80 | 0 | 10 | 30 | Foxtail, Green plant response rating ([2]; 500 g ai/ha, 0 to 100 scale): 100; Kochia plant response rating ([3]; 500 g ai/ha, 0 to 100 scale): 90; Pigweed plant response rating ([4]; 500 g ai/ha, 0 to 100 scale): 90; Ragweed plant response rating ([5]; 500 g ai/ha, 0 to 100 scale): 90; Ryegrass, Italian plant response rating ([6]; 500 g ai/ha, 0 to 100 scale): 70; Pigweed plant response rating ([13]; 500 g ai/ha): 80; Ragweed plant response rating ([14]; 125 g ai/ha): 20; Ragweed plant response rating ([14]; 500 g ai/ha): 60; Ryegrass, Italian plant response rating ([15]; 125 g ai/ha): 0; Ryegrass, Italian plant response rating ([15]; 500 g ai/ha): 20; Wheat plant response rating ([16]; 125 g ai/ha): 0; Wheat plant response rating ([16]; 500 g ai/ha): 10; Ducksalad plant response rating (0 to 100 scale) [17]: 100; Barnyardgrass plant response rating (0 to 100 scale) [18]: 60; Rice plant response rating (0 to 100 scale) [19]: 0
